Assay results taken from paper PMC10154247, “Complex regulation in a Comamonas platform for diverse aromatic carbon metabolism” (Nature Chemical Biology, 2023).

What was measured:
[1] = target: T1, Mdh (Comamonas testosteroni, UniProt A0A096F047); assay: NAD(P)H oxidation at […] nm; assay type: biochemical; details: 10 mM oxaloacetate, 5 mM MgCl2, pH 7.5, 30 °C
T1 construct: gene mdh_1; C-terminal His tag, start and stop codons deleted; recombinant in E. coli BL21 (DE3), Ni-NTA

[2] = target: T2, PobA (4HB 3-monooxygenase) (Comamonas testosteroni, UniProt B7WVQ9); assay: NAD(P)H oxidation at […] nm; assay type: biochemical; details: 10 mM 4HB, 5 mM MgCl2, pH 7.5, 30 °C
T2 construct: gene CtesDRAFT_PD2627; N-terminal His tag with TEV site, start codon removed; recombinant in E. coli BL21 (DE3), Ni-NTA

[3] = target: T3, ME-2 (Comamonas testosteroni, UniProt B7X1D4); assay: NADH formation at […] nm; details: 0.5 and 2 mM, 1 mM L-malate, 0.5 mM NAD+, 5 mM MnCl2, pH 7.5, 30 °C
T3 construct: gene CtesDRAFT_PD5092
T3 sequence (B7X1D4 2-769): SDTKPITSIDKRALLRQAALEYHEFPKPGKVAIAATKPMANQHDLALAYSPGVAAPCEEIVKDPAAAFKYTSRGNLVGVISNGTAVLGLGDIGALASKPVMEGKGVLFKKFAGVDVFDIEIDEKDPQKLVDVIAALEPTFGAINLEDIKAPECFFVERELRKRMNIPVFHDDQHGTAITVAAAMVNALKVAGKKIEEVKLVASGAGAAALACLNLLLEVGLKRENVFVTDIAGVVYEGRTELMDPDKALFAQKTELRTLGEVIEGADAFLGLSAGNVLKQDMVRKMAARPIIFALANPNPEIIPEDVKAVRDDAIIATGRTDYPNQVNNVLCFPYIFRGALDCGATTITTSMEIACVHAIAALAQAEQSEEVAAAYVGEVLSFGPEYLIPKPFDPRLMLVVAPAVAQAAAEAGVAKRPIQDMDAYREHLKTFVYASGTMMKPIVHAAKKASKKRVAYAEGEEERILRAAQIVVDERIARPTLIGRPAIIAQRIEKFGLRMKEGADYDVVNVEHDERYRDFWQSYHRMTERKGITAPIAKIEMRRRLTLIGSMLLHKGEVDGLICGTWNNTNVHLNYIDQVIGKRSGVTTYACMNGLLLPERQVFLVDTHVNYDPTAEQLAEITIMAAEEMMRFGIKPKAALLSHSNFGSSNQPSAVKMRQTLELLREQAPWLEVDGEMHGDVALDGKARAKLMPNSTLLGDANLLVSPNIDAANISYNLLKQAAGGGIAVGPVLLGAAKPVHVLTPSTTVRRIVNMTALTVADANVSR

[4] = target: T4, ME-1 (Comamonas testosteroni, UniProt B7WXG5); assay: NADPH formation at […] nm; details: allosteric activator, 0.5 and 2 mM; 1 mM L-malate, 0.5 mM NADP+, 5 mM MnCl2, pH 7.5, 30 °C
T4 construct: gene CtesDRAFT_PD0934
T4 sequence (B7WXG5 2-765): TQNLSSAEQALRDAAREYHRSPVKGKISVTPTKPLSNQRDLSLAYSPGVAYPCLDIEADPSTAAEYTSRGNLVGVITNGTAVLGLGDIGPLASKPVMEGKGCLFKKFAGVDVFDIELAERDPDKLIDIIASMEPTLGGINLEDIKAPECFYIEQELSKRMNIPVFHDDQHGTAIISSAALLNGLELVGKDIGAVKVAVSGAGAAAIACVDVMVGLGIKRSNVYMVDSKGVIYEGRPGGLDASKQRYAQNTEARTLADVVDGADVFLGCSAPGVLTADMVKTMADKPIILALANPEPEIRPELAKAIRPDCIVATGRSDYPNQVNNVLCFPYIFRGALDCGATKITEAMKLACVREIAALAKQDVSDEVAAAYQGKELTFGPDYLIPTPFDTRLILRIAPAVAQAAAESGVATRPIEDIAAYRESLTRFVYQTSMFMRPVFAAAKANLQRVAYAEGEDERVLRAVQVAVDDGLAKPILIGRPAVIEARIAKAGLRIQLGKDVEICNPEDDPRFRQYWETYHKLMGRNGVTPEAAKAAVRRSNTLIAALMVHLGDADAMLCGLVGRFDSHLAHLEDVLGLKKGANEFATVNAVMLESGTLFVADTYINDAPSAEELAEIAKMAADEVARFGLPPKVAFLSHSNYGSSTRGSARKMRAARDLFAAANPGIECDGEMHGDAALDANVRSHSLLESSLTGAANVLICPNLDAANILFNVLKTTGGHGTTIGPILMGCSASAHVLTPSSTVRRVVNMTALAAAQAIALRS

[5] = target: T5, PEPs (PEP synthase) (Comamonas testosteroni, UniProt B7X5R8); assay: pyruvate consumption by HPLC-RI; assay type: biochemical; details: allosteric inhibitor, 2 or 5 mM (printed as 'up to'); 1 mM pyruvate, 1.5 mM ATP, 5 mM MgCl2, pH 7.5, 30 °C
T5 construct: gene CtesDRAFT_PD3828; N-terminal His tag with TEV site, start codon removed; recombinant in E. coli BL21 (DE3), Ni-NTA
T5 sequence (B7X5R8 2-796): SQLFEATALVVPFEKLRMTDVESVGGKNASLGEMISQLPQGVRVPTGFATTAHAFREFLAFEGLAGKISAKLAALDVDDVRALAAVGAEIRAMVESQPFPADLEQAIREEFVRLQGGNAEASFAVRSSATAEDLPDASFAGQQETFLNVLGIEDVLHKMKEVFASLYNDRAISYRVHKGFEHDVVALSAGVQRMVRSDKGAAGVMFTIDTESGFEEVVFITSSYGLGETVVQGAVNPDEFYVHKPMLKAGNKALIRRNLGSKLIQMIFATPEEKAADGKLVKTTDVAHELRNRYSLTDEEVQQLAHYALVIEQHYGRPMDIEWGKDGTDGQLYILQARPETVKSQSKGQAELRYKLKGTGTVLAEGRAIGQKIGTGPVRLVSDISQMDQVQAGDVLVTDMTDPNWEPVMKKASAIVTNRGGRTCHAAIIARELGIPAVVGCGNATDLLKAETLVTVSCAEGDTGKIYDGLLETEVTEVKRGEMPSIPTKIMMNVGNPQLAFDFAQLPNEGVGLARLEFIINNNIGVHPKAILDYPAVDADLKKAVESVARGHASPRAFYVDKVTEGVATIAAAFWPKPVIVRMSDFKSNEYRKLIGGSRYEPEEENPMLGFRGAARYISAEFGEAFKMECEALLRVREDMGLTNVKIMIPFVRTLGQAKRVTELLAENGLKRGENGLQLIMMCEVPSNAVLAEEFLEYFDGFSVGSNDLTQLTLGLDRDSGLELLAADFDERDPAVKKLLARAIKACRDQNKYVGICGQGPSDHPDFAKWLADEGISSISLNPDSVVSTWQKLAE

T1 sequence (A0A096F047 2-329): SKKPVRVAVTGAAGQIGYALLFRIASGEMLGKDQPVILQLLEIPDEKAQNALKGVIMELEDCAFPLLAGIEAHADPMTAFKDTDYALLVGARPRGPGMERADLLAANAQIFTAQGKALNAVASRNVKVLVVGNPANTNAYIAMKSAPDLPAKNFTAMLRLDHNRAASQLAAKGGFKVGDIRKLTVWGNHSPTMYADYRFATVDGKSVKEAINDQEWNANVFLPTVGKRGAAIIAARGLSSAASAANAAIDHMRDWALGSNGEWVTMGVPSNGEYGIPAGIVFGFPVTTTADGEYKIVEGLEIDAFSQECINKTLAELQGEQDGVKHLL

`NC(=O)C1=CN([C@@H]2O[C@H](COP(=O)(O)OP(=O)(O)OC[C@H]3O[C@@H](n4cnc5c(N)ncnc54)[C@H](O)[C@@H]3O)[C@@H](O)[C@H]2O)C=CC1` [NADH] was tested, and the “NAD(P)H oxidation at 340 nm” value [1] was “NADH was the preferred cofactor for ME-2 and Mdh”.
`NC(=O)C1=CN([C@@H]2O[C@H](COP(=O)(O)OP(=O)(O)OC[C@H]3O[C@@H](n4cnc5c(N)ncnc54)[C@H](OP(=O)(O)O)[C@@H]3O)[C@@H](O)[C@H]2O)C=CC1` [NADPH] was tested, and the “NAD(P)H oxidation at 340 nm” value [2] was “NADPH was the cofactor for PobA and for ME-1, IDH1 and IDH2”.
With `O=C(O)CCC(=O)O` [succinate] the “relative activity (%)” value ([3]; allosteric activator) was “moderate activation in the presence of succinate and glutamate” and the “relative activity (%)” value [4] was “moderate activation in the presence of succinate and glutamate”.
`O=C(O)CCC(=O)C(=O)O` [αKG] was tested, and the “% decrease in pyruvate consumption” value [5] was ~ 35% and the “relative activity (%)” value ([3]; allosteric inhibitor) was “only high concentrations of αKG had a significant inhibitory impact on ME-2”.
